In PubChem BioAssay AID788 (SRMLSC, 2007):
Activity calls are given as the source filed them. How the calls were made is not given here.

Assays:
[1] = tested on: S. cerevisiae vps1Δ apl2Δ growth inhibition, dose response; test: growth inhibition of vps1Δ apl2Δ yeast, dose response, post-Golgi transport modulator project, S. cerevisiae, background strain comparison (AID 788)
[2] = tested on: S. cerevisiae wild-type background strain growth inhibition; test: as above; details: S. cerevisiae vps1Δ apl2Δ growth inhibition, dose response; measured here: wild-type background strain growth

SMILES: N[C@@H](Cc1c[nH]c2ccccc12)c1nnc(SCc2ccc(Cl)cc2)o1
- IC50 [1]: 24.8 µM (inactive)
- IC50 [2]: 20.4 µM

SMILES: CCCCC1(CCCC)C(=O)NC(=Nc2cccc(C)c2)NC1=O
- IC50 [1]: > 10 µM (inactive)
- IC50 [2]: > 10 µM

SMILES: CCOCCCNC(=O)c1cc2sc(Cl)cc2n1CC
- IC50 [1]: > 10 µM (inactive)
- IC50 [2]: > 10 µM

SMILES: O=[N+]([O-])c1ccc(N/N=C/c2c[nH]c3ccccc23)c(S(=O)(=O)Nc2ccc(Cl)cc2)c1
- IC50 [1]: 2.15 µM
- IC50 [2]: 2.5 µM

SMILES: CC1CCCCC1NC(=O)CSc1nnnn1-c1ccccc1 (stereo unspecified)
- IC50 [1]: > 10 µM (inactive)
- IC50 [2]: > 10 µM

SMILES: CC12CCC(c3c(C(=O)Nc4nccs4)nn(-c4ccccc4)c31)C2(C)C (stereo unspecified)
- IC50 [1]: > 10 µM (inactive)

SMILES: Cc1ccc(C2(C(F)(F)F)N=C3Sc4cc(C)cc(C)c4N3C(=O)N2)cc1 (stereo unspecified)
- IC50 [1]: 1.5 µM (inactive)
- IC50 [2]: 1.08 µM

SMILES: CCC(OC(=O)C(NC(=O)c1ccccc1)c1ccccc1)C(=O)Nc1cc(C)on1 (stereo unspecified)
- IC50 [1]: > 10 µM (inactive)
- IC50 [2]: > 10 µM

SMILES: CCN(CC)c1ccc(CN2CC=C(c3ccc(F)cc3)CC2)cc1
- IC50 [1]: 9.87 µM
- IC50 [2]: 25.8 µM

SMILES: Cc1nn(Cc2cccc(C(=O)NC(C)c3ccc(C(C)(C)C)cc3)c2)c(C)c1[N+](=O)[O-] (stereo unspecified)
- IC50 [1]: > 10 µM (inactive)
- IC50 [2]: > 10 µM

SMILES: CCN1C(=O)c2ccc(C(=O)NCc3ccccc3)cc2C1=O
- IC50 [1]: > 10 µM (inactive)
- IC50 [2]: > 10 µM

SMILES: O=C(Nc1nnc(-c2ccc3c(c2)CCCC3)o1)c1ccccc1Cl
- IC50 [1]: 14.6 µM (inactive)
- IC50 [2]: 10.7 µM

SMILES: Cc1cc(=O)[nH]c(SCC(=O)c2ccc(C)c(C)c2)n1
- IC50 [1]: 2.13 µM
- IC50 [2]: 2.31 µM

SMILES: N#Cc1ccccc1Cn1cc(C(=O)c2cccs2)c2ccccc21
- IC50 [1]: > 10 µM (inactive)

SMILES: Cc1cccc(N2CCN(CC(=O)Nc3nccs3)CC2)c1C
- IC50 [1]: > 10 µM (inactive)
- IC50 [2]: > 10 µM

SMILES: CCCn1nc([N+](=O)[O-])c(C(C#N)c2nc3ccccc3s2)c(Cl)c1=O (stereo unspecified)
- IC50 [1]: 5.34 µM (inactive)
- IC50 [2]: 2.16 µM

SMILES: Cc1cc2ncn(CC(O)COc3cccc(C(=O)O)c3)c2cc1C (stereo unspecified)
- IC50 [1]: > 10 µM (inactive)
- IC50 [2]: > 10 µM

SMILES: C=CCc1ccc(OCCCCN2CC(C)OC(C)C2)c(OC)c1 (stereo unspecified)
- IC50 [1]: 2.33 µM
- IC50 [2]: > 10 µM

SMILES: O=C(COc1ccc(Br)cc1F)NC1CCN(Cc2ccccc2)CC1
- IC50 [1]: 3.05 µM
- IC50 [2]: > 10 µM

SMILES: O=[N+]([O-])c1ccc(N2CCN(S(=O)(=O)c3ccc(Cl)cc3)CC2)cc1NCc1cccnc1
- IC50 [1]: > 10 µM (inactive)
- IC50 [2]: > 10 µM

SMILES: CCC(C)(C)NC(=O)CN(C(=O)CCC(=O)Nc1ccccn1)c1ccc(F)c(Cl)c1
- IC50 [1]: > 10 µM (inactive)
- IC50 [2]: > 10 µM

SMILES: CC(C)c1ccc(C2C3CSCC=C3C(C#N)=C(N)C2(C#N)C#N)cc1 (stereo unspecified)
- IC50 [1]: 2.08 µM (inactive)
- IC50 [2]: 0.843 µM

SMILES: NC(=O)c1c(NC(=O)CN2C(=O)CCC2=O)sc2c1CCCCC2
- IC50 [1]: > 10 µM (inactive)
- IC50 [2]: > 10 µM

SMILES: Cc1cc(C)c2c(c1)/C(=C/C(=O)c1ccc(Br)s1)C(=O)N2
- IC50 [1]: 2.73 µM (inactive)
- IC50 [2]: 1.42 µM

SMILES: CCOC(=O)C1=C(N)N2C(=O)C(C)SC2=C(C(=O)OC)C1c1ccccc1OC (stereo unspecified)
- IC50 [2]: 0.163 µM

SMILES: COCCCn1c2nc3ccccc3nc2c2c(=O)n(-c3ccccc3OC)cnc21
- IC50 [1]: > 10 µM (inactive)
- IC50 [2]: > 10 µM

SMILES: OC(COCc1ccc(Cl)cc1)CN1CC=C(c2ccccc2)CC1 (stereo unspecified)
- IC50 [1]: 4.71 µM
- IC50 [2]: 20.8 µM

SMILES: ON=Cc1cccn1-c1ccccc1
- IC50 [1]: > 10 µM (inactive)
- IC50 [2]: > 10 µM

SMILES: COc1cccc(NC(=O)c2ccc(CN3CCN(c4ccccc4)CC3)cc2)c1
- IC50 [1]: > 10 µM (inactive)
- IC50 [2]: > 10 µM

SMILES: N=c1nc(N)nc2n1NC(c1ccc(F)cc1)=CS2
- IC50 [1]: > 10 µM (inactive)
- IC50 [2]: > 10 µM

SMILES: O=C(COc1ccc(Cl)cc1Cl)NCCCN1CCOCC1
- IC50 [1]: 20.8 µM
- IC50 [2]: > 10 µM

SMILES: COC(=O)c1ccc(NC(=O)c2cn(-c3ccccc3)nc2-c2ccncc2)cc1
- IC50 [1]: > 10 µM (inactive)
- IC50 [2]: > 10 µM

SMILES: O=C(OCn1nnc2ccccc2c1=O)c1cn(-c2ccccc2)nc1-c1cccnc1
- IC50 [1]: > 10 µM (inactive)
- IC50 [2]: > 10 µM

SMILES: O=C(CN1CCN(c2ccccn2)CC1)Nc1ccc(Oc2ccccc2)cc1
- IC50 [1]: > 10 µM (inactive)

SMILES: Cc1ccc2cc(CN(CCO)Cc3nnnn3Cc3ccc(F)cc3)c(=O)[nH]c2c1
- IC50 [1]: > 10 µM (inactive)
- IC50 [2]: > 10 µM

SMILES: Cc1ccc(C)c(C(=O)NCc2ccncc2)c1
- IC50 [1]: > 10 µM (inactive)
- IC50 [2]: > 10 µM

SMILES: COc1ccc(C2CC(=O)C3=C(C2)NC(C)=C(C(=O)Nc2ccccc2C)C3c2coc3ccc(C)cc3c2=O)cc1OC (stereo unspecified)
- IC50 [1]: > 10 µM (inactive)
- IC50 [2]: > 10 µM

SMILES: O=C(C1CCCN(S(=O)(=O)c2ccc(Cl)cc2)C1)N(Cc1cccs1)C1CC1 (stereo unspecified)
- IC50 [1]: > 10 µM (inactive)
